The test system of one test is Pst DC3000 ΔCEL mutant. The test can be described thus: BFA treatment of bacteria-infiltrated detached leaves: bacterial multiplication and disease symptoms. In kind it is in vivo, Pseudomonas syringae. The procedure: (§1) A standard enumeration procedure involves pathogen inoculation, using any one of described methods, supra, followed by assaying bacterial populations present within host tissues at regular intervals. The population present within the tissue was calculated based on the dilution factor divided by the amount of tissue present in each sample. Plotting log (culturable bacterial number/cm^2 leaf tissue) against time (usually in days) after pathogen inoculation produced an unfitted curve, i.e. growth curve. For a review of methods, see, Katagiri et al., in The Arabidopsis Book, Somerville, Meyerowitz, Eds. (American Society of Plant Biologists, Rockville, Md., 2002), website://dx.doi.org/10.1199/tab.0039; herein incorporated by reference.
(§2) Leaves were harvested and surface sterilized as follows: 1) whole leaves were removed from a host plant and gently mixed in a 70% ethanol solution for 1 minute. Leaves were blotted briefly on paper towels then rinsed in sterile distilled water for 1 minute, then blotted dry on paper towels. Leaf disks were excised from leaves with a 0.5 cm^2 or smaller cork borer, depending on the size of the sample leaves; 2) leaf disks from the leaves of 2 or more independent replicate plants were pooled for a single tissue sample and placed in a 1.5-mL microfuge tube with 100 μL sterile distilled water, the amount of leaf tissue per tube was recorded as leaf surface area. Three or more samples were harvested for each time point. Steps 1 and 2 were repeated for each sample; 3) Tissue samples were ground with a microfuge tube plastic pestle, by hand or by using a small hand-held electric drill. […] The number of serial dilutions necessary to get countable colonies were determined for each sample, however dilutions to 10^−7 were usually sufficient for any bacterial strain; 7) The samples were plated on the appropriate medium (e.g., Low salt Luria Bertani) supplemented with the necessary antibiotics to select for the specific inoculated bacterial strain. Plating was done in the traditional way (100 μL of a single sample was spread on a single plate) or several 10 μL aliquots of the 1:10 serial dilutions were spotted on to a single plate and allowed to dry onto the surface; and 8) Plates were placed at 30° C. for approximately 2 days with a cfu value determined for each dilution of each sample. […]
(§3) Leaves were infiltrated with 1×10^6 cfu/ml of bacteria, detached, and placed in microtiter wells with petioles immersed in the 36 μM BFA (Sigma Co.) solution. […] Bacterial populations and disease symptoms were determined on day 0 and day three.

A further test deals with Pst DC3000. The description is as above. In kind it is in vivo, Pseudomonas syringae. The settings on record: Col-0 gl1 plants treated with water or BFA (36 μM). The procedure:
as §1, §2, §3

The subject of a further test is hrcC mutant. The description is as above. The settings on record: Col-0 gl1 plants treated with water or BFA (36 μM). In kind it is in vivo, Pseudomonas syringae. The procedure: as §1, §2, §3
For test [1], the system named is Pst DC3000 ΔCEL mutant-pORF43 bacteria. The test can be described thus: Bacterial multiplication and disease symptoms in HopM1 transgenic Arabidopsis plants. In kind it is in vivo, Pseudomonas syringae. The procedure:
Following inoculation, infected plants were monitored daily over a 3- to 4-day period for symptom development and bacterial multiplication. For experiments described in FIGS. 1 and 5, plants were sprayed with 30 μM dexamethasone (DEX) 24 h before bacterial inoculation (1×10^6 cfu/ml).
as §2, with “point.” for “point. Steps 1 and 2 were repeated for each sample; 3) Tissue samples were ground with a microfuge tube plastic pestle, by hand or by using a small hand-held electric drill.”, “strain.” for “strain. Plating was done in the traditional way (100 μL of a single sample was spread on a single plate) or several 10 μL aliquots of the 1:10 serial dilutions were spotted on to a single plate and allowed to dry onto the surface; and 8) Plates were placed at 30° C. for approximately 2 days with a cfu value determined for each dilution of each sample.”

Test [2] relates to Arabidopsis Y2H cDNA library. The test can be described thus: Yeast two-hybrid (Y2H) screening with HopM1 baits. In kind it is binding. The settings on record: protein used as bait. The text has this:
A LexA-based yeast two-hybrid system was used for screening an Arabidopsis Y2H cDNA library using full-length HopM1 and the dominant-negative domain of HopM1 (HopM11-300) as bait, in separate screenings. This system was based upon a pGilda Lex A expression vector (CLONTECHniques, OCTOBER 1999 p. 26-27, Clontech Laboratories Inc.; herein incorporated by reference in its entirety) for expressing HopM1 proteins in combination with a lacZ reporter gene on a separate plasmid that autonomously replicated in yeast (CLONTECHniques, OCTOBER 1999 p. 26-27, Clontech Laboratories Inc.; herein incorporated by reference in its entirety), see below for addition information (see, MATCHMAKER LexA Two-Hybrid System Catalog #K1609-1 and MATCHMAKER LexA Libraries User Manual (PT3040-1) Version It PR67300 and (Yeast Protocols Handbook, Protocol # PT3024-1 Version # PR13103, published 14 Mar. 2001; herein incorporated by reference in its entirety).
hopM1 DNA fragments were amplified by PCR using the primers listed below and standard PCR procedures then fragments were isolated and cloned into a bait vector pGilda Lex A (resistance to ampicillin (100 μg/ml) to E. coli hosts; Protocol # PT3147-5; Version # PR81829; Clontech Laboratories, Inc.; herein incorporated by reference in its entirety). […]

The target of another test is T1, AtMIN7-HA (Arabidopsis thaliana, UniProt F4IXW2, DEL212-213/INS429[…]).
T1 construct: expressed in transfected cells; host or cells: Nicotiana benthamiana leaves, Agrobacterium tumefaciens C58C1 co-infiltration (pBI121-AtMIN or pBAR1-AtMIN, CaMV 35S promoter)
Put plainly: Protein pull-down assay in N. benthamiana leaves. The format is binding. Conditions: Ni-NTA pull-down, immunoblot. The text has this: N. benthamiana plants were transiently transformed with HopM1 and AtMIN proteins. In brief, fully expanded N. benthamiana leaves were co-infiltrated with Agrobacterium tumefaciens C58 C1 (for an example of co-infiltration techniques, see, Hellens, et al. (2005) Plant Methods, 1:13; herein incorporated by reference) comprising plasmids and genes described herein (for example, see, Bechtold, et al. (1993) Comptes Rendus De L Academie Des Sciences Serie Iii-Sciences De La Vie-Life Sciences 316(10):1194-1199; herein incorporated by reference).
Protein pull-down analysis methods: N. benthamiana leaf discs were homogenized in lysis buffer (50 mM Tris-HCl pH=8.0, 250 mM NaCl, 10 mM β-mercaptoethanol, 1% Triton X100, 1 mM PMSF, plant protease inhibitor cocktail [Sigma Co.]). Total protein extracts were collected after centrifugation of the homogenate at 20,000-×g for 15 min at 4° C. to remove insoluble materials. The supernatant was incubated with Ni-NTA agarose beads (Qiagen) with gentle shaking for 1 hour at 4° C., followed by centrifugation at 15,000-×g for 1 min to pull down 6×His-HopM1 and its interacting proteins. Beads were then washed three times with lysis buffer and resuspended in 1×SDS-PAGE sample buffer for SDS-PAGE gel and/or immunoblot analyses. […] AtMIN10-HA was detected using the HA epitope antibody.
(Immunoblotting shows a protein as a band on a membrane.)

T1 sequence (F4IXW2 with tags, fused parts or gaps DEL212-213/INS429[withheld]): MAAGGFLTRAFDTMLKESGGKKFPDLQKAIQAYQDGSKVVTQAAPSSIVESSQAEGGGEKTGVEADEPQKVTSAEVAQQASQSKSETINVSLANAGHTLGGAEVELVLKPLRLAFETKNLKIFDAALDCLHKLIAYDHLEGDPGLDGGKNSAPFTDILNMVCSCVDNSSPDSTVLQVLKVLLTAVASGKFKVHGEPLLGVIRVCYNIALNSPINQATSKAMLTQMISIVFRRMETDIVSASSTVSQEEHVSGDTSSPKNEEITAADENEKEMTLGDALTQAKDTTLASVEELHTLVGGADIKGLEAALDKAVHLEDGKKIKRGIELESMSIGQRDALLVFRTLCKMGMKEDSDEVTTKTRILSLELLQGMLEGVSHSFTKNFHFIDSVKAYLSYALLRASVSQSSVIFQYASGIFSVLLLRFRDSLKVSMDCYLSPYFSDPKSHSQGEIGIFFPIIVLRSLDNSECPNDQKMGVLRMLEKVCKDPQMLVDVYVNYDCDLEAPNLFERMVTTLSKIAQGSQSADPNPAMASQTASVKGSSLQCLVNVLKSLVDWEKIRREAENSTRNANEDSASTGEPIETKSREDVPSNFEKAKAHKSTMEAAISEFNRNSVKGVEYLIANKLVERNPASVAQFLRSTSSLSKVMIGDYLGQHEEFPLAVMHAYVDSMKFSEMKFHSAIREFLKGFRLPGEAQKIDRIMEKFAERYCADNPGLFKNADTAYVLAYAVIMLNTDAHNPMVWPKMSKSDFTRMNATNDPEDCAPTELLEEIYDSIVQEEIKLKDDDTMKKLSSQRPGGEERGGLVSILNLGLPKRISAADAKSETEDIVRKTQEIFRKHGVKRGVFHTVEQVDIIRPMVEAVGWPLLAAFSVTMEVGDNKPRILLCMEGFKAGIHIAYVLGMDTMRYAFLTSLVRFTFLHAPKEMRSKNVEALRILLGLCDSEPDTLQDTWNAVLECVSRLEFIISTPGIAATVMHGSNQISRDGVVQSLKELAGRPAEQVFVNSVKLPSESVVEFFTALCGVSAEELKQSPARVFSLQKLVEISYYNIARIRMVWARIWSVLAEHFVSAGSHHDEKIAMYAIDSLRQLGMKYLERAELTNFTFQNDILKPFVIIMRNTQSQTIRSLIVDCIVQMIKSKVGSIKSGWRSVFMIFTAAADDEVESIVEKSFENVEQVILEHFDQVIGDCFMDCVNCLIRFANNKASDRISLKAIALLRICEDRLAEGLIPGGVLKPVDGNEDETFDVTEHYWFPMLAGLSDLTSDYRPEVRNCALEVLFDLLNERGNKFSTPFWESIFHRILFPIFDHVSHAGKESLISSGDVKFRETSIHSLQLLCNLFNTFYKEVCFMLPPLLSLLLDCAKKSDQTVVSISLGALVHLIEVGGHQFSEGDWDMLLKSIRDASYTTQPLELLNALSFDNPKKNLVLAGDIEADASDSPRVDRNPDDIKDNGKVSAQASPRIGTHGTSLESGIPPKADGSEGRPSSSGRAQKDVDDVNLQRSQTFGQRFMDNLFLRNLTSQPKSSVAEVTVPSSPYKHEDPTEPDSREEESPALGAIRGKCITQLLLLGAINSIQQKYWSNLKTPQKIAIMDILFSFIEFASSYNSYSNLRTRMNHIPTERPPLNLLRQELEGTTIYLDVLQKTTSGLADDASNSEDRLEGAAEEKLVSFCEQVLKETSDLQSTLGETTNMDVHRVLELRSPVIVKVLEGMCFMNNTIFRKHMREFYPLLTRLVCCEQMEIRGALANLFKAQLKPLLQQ

For `C[C@H]1CCC/C=C/[C@@H]2C[C@H](O)C[C@H]2[C@H](O)/C=C/C(=O)O1` [BFA, Brefeldin A], the “virulence (both multiplication and disease symptoms)” value in the test with Pst DC3000 ΔCEL mutant (36 μM BFA, wild-type Col-0 gl1 plants, day three) is “significantly enhanced”. The “restoration of the virulence of the ΔCEL mutant, compared with AtMIN7 KO plants” value in the test on Pst DC3000 ΔCEL mutant (BFA-treated leaves) is “greater than that in the AtMIN7 KO plants”. In addition, the “multiplication or disease symptoms” value in the test with Pst DC3000 and in the test on hrcC mutant was “no significant differences” each time.

B1: HopM11-300: N-terminal protective fragment of HopM1, amino acids 1-300 (SEQ ID NO:82) (protein, listed as Pseudomonas syringae)
chain: MISSRIGGAGGVELSRVNQQHDTVPAQTAHPNAVTAGMNPPLTPDQSGSHATESSSAGAARLNVAARHTQLLQAFKAEHGTAPVSGAPMISSRAALLIGSLLQAEPLPFEVMAEKLSPERYQLKQFQGSDLQQRLEKFAQPGQIPDKAEVGQLIKGFAQSVADQLEHFQLMHDASPATVGQHAKADKATLAVSQTALGEYAGRASKAIGEGLSNSIASLDEHISALDLTLQDAEQGNKESLHADRQALVDAKTTLVGLHADFVKSPEAKRLASVAAHTQLDNVVSDLVTARNTVGGWKGA
modifications: 6xHis tag
B1: the “effect on the function of full-length HopM1 delivered from the infecting bacteria” value in test [1] (fragment expressed in transgenic Arabidopsis) is “dominant-negative effect”. The “disease symptoms (necrosis and chlorosis) and bacterial multiplication” value in test [1] (transgenic Arabidopsis vs Col-0 gl1 or plants expressing other truncated derivatives) was “significantly reduced”. For the same molecule, the “interactors recovered in Y2H screen” value in test [2] was found to be 21. The “physical interaction with AtMIN7-HA” value with AtMIN7-HA is “physical interaction”.
